Key:
Assay in all cases: relative viability (nuclei count vs DMSO), 5 days (fraction); higher = more cells survive
[1] = compound: CC(C)(C)c1cc(NC(=O)Nc2ccc(-c3cn4c(n3)sc3cc(OCCN5CCOCC5)ccc34)cc2)no1 [Quizartinib] + CC(=O)c1c(C)c2cnc(Nc3ccc(N4CCNCC4)cn3)nc2n(C2CCCC2)c1=O [Palbociclib] (partner 0.5 µM)
How it was run: (§1)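 After 5 days of treatment, lung cancer cells in 1536-well plates were fixed and stained in a single step (final 0.05% Triton X-100, 1% formaldehyde, 1 ug/ml Hoechst) and their nuclei counted on 4× images. Treatment had been applied by pin tool the day after seeding as one drug alone or as a fixed anchor-drug dose with five library-drug doses (not always all listed) in √10 steps. Relative viability is the nuclei count of treated wells divided by that of vehicle wells, and values are medians of duplicate plates.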

Quizartinib + Pemetrexed = compound: CC(C)(C)c1cc(NC(=O)Nc2ccc(-c3cn4c(n3)sc3cc(OCCN5CCOCC5)ccc34)cc2)no1 [Quizartinib] + Nc1nc2[nH]cc(CCc3ccc(C(=O)N[C@@H](CCC(=O)O)C(=O)O)cc3)c2c(=O)[nH]1 [Pemetrexed] (partner 0.2 µM)
How it was run: as §1

YM155 + Alpelisib = compound: COCC[n+]1c2c(n(Cc3cnccn3)c1C)C(=O)c1ccccc1C2=O [YM155] + Cc1nc(NC(=O)N2CCC[C@H]2C(N)=O)sc1-c1ccnc(C(C)(C)C(F)(F)F)c1 [Alpelisib] (partner 2 µM)
How it was run: as §1

YM155 + Decitabine = compound: COCC[n+]1c2c(n(Cc3cnccn3)c1C)C(=O)c1ccccc1C2=O [YM155] + Nc1ncn([C@H]2C[C@H](O)[C@@H](CO)O2)c(=O)n1 [Decitabine] (partner 2 µM)
How it was run: as §1

| Cell Line | relative viability ([1]; first compound 0.001 µM) | relative viability ([1]; first compound 0.003162 µM) | relative viability ([1]; first compound 0.01 µM) | relative viability ([1]; first compound 0.03162 µM) | relative viability ([1]; first compound 0.1 µM) | relative viability (Quizartinib + Pemetrexed; first compound 0.001 µM) | relative viability (Quizartinib + Pemetrexed; first compound 0.003162 µM) | relative viability (Quizartinib + Pemetrexed; first compound 0.01 µM) | relative viability (Quizartinib + Pemetrexed; first compound 0.03162 µM) | relative viability (Quizartinib + Pemetrexed; first compound 0.1 µM) | relative viability (YM155 + Alpelisib; first compound 0.006325 µM) | relative viability (YM155 + Alpelisib; first compound 0.02 µM) | relative viability (YM155 + Alpelisib; first compound 0.06325 µM) | relative viability (YM155 + Decitabine; first compound 0.002 µM) | relative viability (YM155 + Decitabine; first compound 0.006325 µM) | relative viability (YM155 + Decitabine; first compound 0.02 µM) | relative viability (YM155 + Decitabine; first compound 0.06325 µM) | relative viability (YM155 + Alpelisib; first compound 0.002 µM) |
| --- | --- | --- | --- | --- | --- | --- | --- | --- | --- | --- | --- | --- | --- | --- | --- | --- | --- | --- |
| NCI-H1793 | 0.331 | 0.277 | 0.33 | 0.329 | 0.34 | 0.806 | 1.03 | 0.841 | 0.854 | 0.929 | 0.601 | 0.659 | 0.565 | 0.988 | 0.485 | 0.61 | 0.497 | – |
| NCI-H1915 | 0.507 | 0.433 | 0.482 | 0.552 | 0.474 | 0.49 | 0.47 | 0.552 | 0.477 | 0.488 | 1.01 | 1.08 | 0.975 | 0.277 | 0.256 | 0.264 | 0.267 | 1.06 |
| NCI-H1944 | 0.345 | 0.306 | 0.293 | 0.35 | 0.294 | 0.55 | 0.575 | 0.601 | 0.654 | 0.583 | 0.756 | 0.803 | 0.905 | 0.416 | 0.395 | 0.415 | 0.453 | 0.83 |
| NCI-H1975 | 0.588 | 0.605 | 0.599 | 0.552 | 0.538 | 0.283 | 0.306 | 0.316 | 0.295 | 0.294 | 0.665 | 0.581 | 0.549 | 0.344 | 0.338 | 0.423 | 0.353 | 0.627 |
| NCI-H1993 | 0.673 | 0.58 | 0.67 | 0.633 | 0.825 | 0.55 | 0.566 | 0.567 | 0.67 | 0.59 | 0.726 | 0.673 | 0.657 | 0.607 | 0.644 | 0.597 | 0.439 | 0.691 |
| NCI-H2009 | 0.202 | 0.237 | 0.273 | 0.191 | 0.226 | 0.946 | 0.932 | 1.05 | 1.02 | 1.07 | 1.14 | 1.11 | 0.504 | 0.342 | 0.383 | 0.362 | 0.36 | 1.2 |
| NCI-H2023 | 0.298 | 0.312 | 0.467 | – | 0.279 | 0.209 | 0.215 | 0.295 | – | 0.244 | 0.671 | 0.594 | 0.156 | 0.224 | 0.201 | 0.193 | 0.184 | 0.589 |
| NCI-H2085 | 0.407 | 0.486 | 0.444 | 0.453 | 0.388 | 0.82 | 0.879 | 0.97 | 0.836 | 0.833 | 0.833 | 0.731 | 0.559 | 0.594 | 0.557 | 0.54 | 0.471 | 0.955 |
| NCI-H2087 | 0.233 | 0.225 | 0.316 | 0.218 | 0.229 | 0.66 | 0.536 | 0.71 | 0.661 | 0.651 | 1.06 | 1.03 | 0.822 | 0.37 | 0.282 | 0.245 | 0.293 | 0.903 |
| NCI-H2126 | 0.359 | 0.347 | 0.347 | 0.339 | 0.346 | 0.682 | 0.658 | 0.765 | 0.663 | 0.689 | 0.76 | 0.77 | 0.802 | 0.53 | 0.624 | 0.59 | 0.6 | 0.754 |
| NCI-H2170 | 0.385 | 0.365 | 0.392 | 0.367 | 0.358 | 0.252 | 0.242 | 0.279 | 0.293 | 0.277 | 0.855 | 0.889 | 0.877 | 0.506 | 0.508 | 0.42 | 0.516 | 0.866 |
| NCI-H2347 | 0.405 | 0.43 | 0.379 | 0.428 | 0.434 | 0.426 | 0.382 | 0.45 | 0.443 | 0.456 | 0.896 | 0.987 | 0.67 | 0.64 | 0.612 | 0.648 | 0.539 | 1.01 |
| NCI-H2405 | 0.499 | 0.519 | 0.584 | 0.528 | 0.556 | 0.961 | 1.04 | 1.02 | 1.08 | 1.15 | 0.593 | 0.826 | 0.345 | 0.711 | 0.7 | 0.644 | 0.397 | 0.826 |
| NCI-H3122 | 0.176 | 0.184 | 0.193 | 0.162 | 0.235 | 0.185 | 0.201 | 0.193 | 0.2 | 0.211 | 0.665 | 0.751 | 0.82 | 0.428 | 0.432 | 0.482 | 0.486 | 0.67 |
| PC-3 [JPC-3] | 0.531 | 0.545 | 0.598 | 0.588 | 0.504 | 0.845 | 1.12 | 0.852 | 1 | 1.17 | 1.02 | 1.07 | 0.972 | 0.778 | 0.796 | 0.89 | 0.701 | 1.02 |
| PC-14 | 0.485 | 0.457 | 0.488 | – | 0.477 | 0.134 | 0.143 | 0.13 | – | 0.162 | 1.02 | 0.953 | 0.811 | 0.19 | 0.223 | 0.2 | 0.161 | 1 |
| RERF-LC-KJ | 1.05 | 1.05 | 1.17 | 0.984 | 1.02 | 0.458 | 0.493 | 0.48 | 0.457 | 0.492 | 0.705 | 0.771 | 0.842 | 0.649 | 0.644 | 0.787 | 0.737 | 0.806 |
| SK-LU-1 | 0.366 | 0.361 | 0.443 | 0.381 | 0.388 | 0.875 | 0.912 | 1.08 | 0.975 | 0.993 | 1.09 | 1.07 | 1.01 | 0.57 | 0.695 | 0.63 | 0.506 | 1.03 |

Reference: the supplement of paper PMC10307832
